{"source": "patent US20230181520A1", "about": "“USE OF HYDROPEROXY ALCOHOLS AND THE DERIVATIVES THEREOF AS ANTIMICROBIAL AGENTS” (DEMETA, priority 2019, published 2023)", "type_in_all_cases": "cell-based", "key": {"Pseudomonas aeruginosa": {"test_system": "Pseudomonas aeruginosa", "test": "Surface antibacterial test, CFU count on support", "conditions": "P. aeruginosa; 24 h of contact at ambient temperature; sample solution 10 000 ppm in DMSO dried on inert support", "procedure": "The tests were carried out at the surface: a solution of sample at 10 000 ppm in DMSO for a sample of HPA at 72% purity (i.e. […] of active material) was dried on an inert support. Once the solution had dried, a volume of inoculum of each bacterial strain was placed on the support in contact with the sample for 0 and 24 h at ambient temperature. In order to verify the nontoxicity of the DMSO, a pure solution of DMSO was dried on the support under the same conditions as the samples. A nontreated support (noted support control in FIG. 1) was also inoculated, in order to verify the stability of the strains under the conditions of the test. In order to quantify the contamination at each measurement time, a count was performed by spreading out, at the surface or in the mass, of decimal dilutions of the sample on TSA agar or Columbia agar (for C. acnes). The results were expressed in “colony-forming units” (CFUs) on the support. The Bacterial Strains Targeted are: Gram−: Pseudomonas aeruginosa"}, "Enterococcus hirae": {"test_system": "Enterococcus hirae", "test": "Surface antibacterial test, CFU count on support", "conditions": "E. hirae; 24 h of contact at ambient temperature; sample solution 10 000 ppm in DMSO dried on inert support", "procedure": "(§1) The tests were carried out at the surface: a solution of sample at 10 000 ppm in DMSO for a sample of HPA at 72% purity (i.e. […] of active material) was dried on an inert support. Once the solution had dried, a volume of inoculum of each bacterial strain was placed on the support in contact with the sample for 0 and 24 h at ambient temperature. In order to verify the nontoxicity of the DMSO, a pure solution of DMSO was dried on the support under the same conditions as the samples. A nontreated support (noted support control in FIG. 1) was also inoculated, in order to verify the stability of the strains under the conditions of the test. In order to quantify the contamination at each measurement time, a count was performed by spreading out, at the surface or in the mass, of decimal dilutions of the sample on TSA agar or Columbia agar (for C. acnes). The results were expressed in “colony-forming units” (CFUs) on the support. The Bacterial Strains Targeted are: Gram+: Cutibacterium acnes, Enterococcus hirae, Staphylococcus aureus"}, "Staphylococcus aureus": {"test_system": "Staphylococcus aureus", "test": "Surface antibacterial test, CFU count on support", "conditions": "S. aureus; 24 h of contact at ambient temperature; sample solution 10 000 ppm in DMSO dried on inert support", "procedure": "as §1"}, "Cutibacterium acnes": {"test_system": "Cutibacterium acnes", "test": "Surface antibacterial test, CFU count on support (Columbia agar)", "conditions": "C. acnes; 24 h of contact at ambient temperature; sample solution 10 000 ppm in DMSO dried on inert support", "procedure": "as §1"}}}
{"substance": "9(10)-hydroperoxy-10(9)-hydroxystearic acid [hydroperoxy alcohol of oleic acid]", "values": [{"measurement": "logarithmic reduction in the population relative to t=0", "setting": "Pseudomonas aeruginosa", "result": "approximately 4 log 10"}, {"measurement": "logarithmic reduction of the population relative to t=0", "setting": "Enterococcus hirae", "result": "approximately 5 log 10"}, {"measurement": "logarithmic reduction of the population relative to t=0", "setting": "Staphylococcus aureus", "result": "approximately 5 log 10"}, {"measurement": "logarithmic reduction of the population relative to t=0", "setting": "Cutibacterium acnes", "result": "approximately 6 log 10"}]}
